Test results published in patent US6107459A, “Technetium-99m labeled peptides for diagnostic imaging” (Diatide, Inc., priority 1995, dated 2000).
Like-named read-outs stand apart in the source and are kept apart here. Where a SMILES comes first, the peptide text is derived from it. Where no end group is shown, it is not given here. The star is where a group is joined. X1 = CC(C)(S)CNCCN(CCCCC(=O)*)CC(C)(C)S

Columns and labels:
[1] = system: sites of infection (E. coli, left calf muscle); assay: Scintigraphic imaging and biodistribution of Tc-99m labeled peptides in E. coli-infected rabbits; type: in vivo, New Zealand white rabbits; details: for Infected Muscle (% ID/g): Tc-99m labeled peptide i.v. (≤150 μg, 2-10 mCi), 24 h after i.m. E. coli inoculation, tissue taken after final imaging, percent injected dose per gram tissue; for Blood (% ID/g) / Control Muscle (% ID/g): rabbit, in vivo, iv; for Ratio of Infected/Blood / Ratio of Infected/Control: ratio of % ID/g; for Ratio of Infected/Blood: infected muscle tissue versus blood; for Ratio of Infected/Control: infected versus non-infected muscle tissue
Experimental: (§1) After 24 h, the animals were sedated by i.m. injection of ketamine and xylazine, and then injected i.v. with Tc-99m labeled peptide (≤150 μg, 2-10 mCi). The animals were positioned supine in the field of view of a gamma camera (LEAP collimator/photopeaked for Tc-99m) and imaged over the first hour post-injection, and then at approximately 1 h intervals over the next three hours post injection. Animals were allowed to recover between image acquisitions and re-anesthetized as needed.
(§2) Upon completion of the final imaging, each animal was sacrificed by overdose of phenobarbital i.v. and dissected to obtain samples of blood and of infected and control muscle tissue. The tissue samples were weighed, and along with a standard amount of the injected dose, were counted using a gamma counter, and the percent injected dose (per gram of tissue) remaining in the tissues was determined. Ratios of percent of injected dose per gram of infected versus non-infected muscle tissue, and of infected muscle tissue versus blood, were calculated for each peptide. Scintiphotos of whole body and leg images of a rabbit injected with a Tc-99m labeled reagent of the invention, having the formula

[2] = as above; type: in vivo, New Zealand white rabbits; details: rabbit, in vivo, iv
Experimental: as §1, §2

Ac.CGGGPLYKKIIKKLLES: Tc-99m labeled platelet factor 4-derived peptide reagent (Ac-CGGGPLYKKIIKKLLES; also: Tc-99m labeled)
Infected Muscle (% ID/g) [1]: 0.0235 % ID/g | Blood (% ID/g) [1]: 0.032 % ID/g | Control Muscle (% ID/g) [1]: 0.0050 % ID/g | Ratio of Infected/Blood [1]: 0.74 | Ratio of Infected/Control [1]: 4.70

CC[C@H](C)[C@H](NC(=O)[C@H](CCCCN)NC(=O)[C@H](CCCCN)NC(=O)[C@H](Cc1ccc(O)cc1)NC(=O)[C@H](CC(C)C)NC(=O)[C@@H]1CCCN1C(=O)CNC(=O)CNC(=O)CCCCN(CCNCC(C)(C)S)CC(C)(C)S)C(=O)N[C@H](C(=O)N[C@@H](CCCCN)C(=O)N[C@@H](CCCCN)C(=O)N[C@@H](CC(C)C)C(=O)N[C@@H](CC(C)C)C(=O)N[C@@H](CCC(=O)O)C(=O)N[C@@H](CO)C(=O)O)[C@@H](C)CC [[BAT].GGPLYKKIIKKLLES] (X1-GGPLYKKIIKKLLES-OH; N-terminus and C-terminus assumed)
tissue uptake ([2]; Blood (% ID/g)): 0.004 %ID/g | tissue uptake ([2]; Control Muscle (% ID/g)): 0.0003 %ID/g | tissue uptake ([2]; Tc-99m labeled peptide i.v. (≤150 μg, 2-10 mCi), 24 h after i.m. E. coli inoculation, tissue taken after final imaging, percent injected dose per gram tissue, read-out: Infected Muscle (% ID/g)): 0.0021 %ID/g | Ratio of Infected/Blood [1]: 0.50 | Ratio of Infected/Control [1]: 7.00

Ac.KKKKKCAcm GCAcm GGPLYKKIIKKLLES: Tc-99m labeled platelet factor 4-derived peptide reagent
Infected Muscle (% ID/g) [1]: 0.0061 % ID/g | Scintigraphic images (FIG. 1): localization of radioactivity, infected leg versus contralateral leg ([1]; gamma camera, whole body and leg images of a rabbit injected with the Tc-99m labeled reagent): much greater extent of localization of radioactivity in the leg bearing the experimentallly-infected site compared to the non-infected contralateral leg | Blood (% ID/g) [1]: 0.006 % ID/g | Control Muscle (% ID/g) [1]: 0.0019 % ID/g | Ratio of Infected/Blood [1]: 0.93 | Ratio of Infected/Control [1]: 5.60

(Ac.CCAcm GCAcm PLYKKIIKKLLES)2 BSME: PF4-derived peptide dimer linked by bis-succinimidylmethylether, Cys(Acm)-Gly-Cys(Acm) Tc-99m binding moiety
Infected Muscle (% ID/g) [1]: 0.0082 % ID/g | Blood (% ID/g) [1]: 0.010 % ID/g | Control Muscle (% ID/g) [1]: 0.0011 % ID/g | Ratio of Infected/Blood [1]: 0.84 | Ratio of Infected/Control [1]: 7.45
